From patent US8664217B2, “Benzodiazepine compound and pharmaceutical composition” (Otsuka Pharmaceutical Co., Ltd., priority 2008, dated 2014)

melting point: 88.1 to 92.2 °C
Structure (SMILES): CCN1C(=O)C(C)(C)C(=O)N(C)c2cc(OCCCN(CCc3cccnc3)C(=O)c3ccncc3)ccc21 [Example 459, N-[3-(1-ethyl-3,3,5-trimethyl-2,4-dioxo-2,3,4,5-tetrahydro-1H-benzo[b][1,4]diazepin-7-yloxy)propyl]-N-(2-pyridin-3-ylethyl)isonicotinamide]
